Experimental data published in ChEMBL document CHEMBL1151379, “Chemical Constituents of Hyptis suaveolens. Part I. Spectral and Biological Studies on a Triterpene Acid” (1981).

Test system: Bipolaris oryzae
Assay: Antifungal activity against Helminthosporium oryzae at 1000 ppm
Format: functional

## C[C@H]1[C@H](C)CC[C@]2(C)CC[C@]3(C(=O)O)C(=CC[C@@H]4[C@@]5(C)CC[C@H](O)C(C)(C)[C@@H]5CC[C@]43C)[C@H]12
  Activity: <10%
